Literature values, collected in patent US12673064B2, “Biodegradable drug-polymer conjugate” (POLYACTIVA PTY LTD, priority 2019, dated 2026).

Key:
[1] = 0.002% dosage, week 1
[2] = test system: monkeys

| Compound | effectiveness versus latanoprost 0.005% [1] | IOP and total outflow resistance [2] | uveoscleral outflow or aqueous flow [2] |
| --- | --- | --- | --- |
| CC(C)OC(=O)CNc1cccc(CN(Cc2ccc(-n3cccn3)cc2)S(=O)(=O)c2cccnc2)n1 [Omidenepag isopropyl] | more effective than latanoprost 0.005% | – | – |
| CCCCC[C@H](O)/C=C/[C@H]1[C@H](O)CC(=O)[C@@H]1SCCCSCC(=O)O [3,7-dithia-PGE1] | – | reduced | without affecting |
